Values of other authors, collected in patent publication US20130184354A1, “Silicone and Hylauronic Acid (HLA) Delivery Systems for Products by Sustainable Processes for Medical Uses Including Wound Management” (priority 2012, published 2013).

Experiments:
CB2 receptors = CB2 receptors (Homo sapiens, UniProt P34972)
[1] = compared with THC

Chain of CB2 receptors (P34972 whole entry): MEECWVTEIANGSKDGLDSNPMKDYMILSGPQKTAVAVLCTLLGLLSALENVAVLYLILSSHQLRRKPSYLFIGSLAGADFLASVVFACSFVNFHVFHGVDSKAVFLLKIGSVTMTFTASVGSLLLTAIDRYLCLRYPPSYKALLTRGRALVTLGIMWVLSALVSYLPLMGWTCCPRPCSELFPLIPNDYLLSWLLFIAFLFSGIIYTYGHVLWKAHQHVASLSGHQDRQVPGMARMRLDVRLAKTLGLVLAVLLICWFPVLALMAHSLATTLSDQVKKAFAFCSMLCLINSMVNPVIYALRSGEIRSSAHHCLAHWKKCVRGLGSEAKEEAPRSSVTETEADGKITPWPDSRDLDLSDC

Compound	affinity for CB2 receptors (CB2 receptors)	potency relative to THC [1]
C=C(C)[C@@H]1CCC(C)=C[C@H]1c1c(O)cc(CCCCC)cc1O [Cannabidiol]	no affinity	
CCCCCCC(C)(C)c1cc(O)c2c(c1)OC(C)(C)[C@@H]1CC=C(CO)C[C@@H]21 [HU-210]		about 100 times
